Reference: US8207167B2, “Aryl-phenyl-sulfonamide-phenylene compounds and their use” (PIMCO 2664 Limited, priority 2008, dated 2012)
Converted amounts (≈) assume the structure as drawn.

Experiments:
J774 macrophages = assay: Alamar Blue macrophage J774 viability assay; assay type: cell-based; conditions: 72 hours culture with compound, Alamar Blue read-out
Protocol: (§1) Initial screening of candidate compounds was performed using in vitro assays to determine potency, metabolic stability and solubility in biologically relevant fluids. Potency was assessed using a viability assay based on the survival of the J774 macrophage cell line. Macrophages are closely related to osteoclasts and have been used previously as a model system for osteoclast survival (see, e.g., Luckman et al., 1998). Like osteoclasts, J774 macrophages are dependent on continued NFκB activation for survival, thereby providing a valuable screen for compounds with anti-inflammatory activity. Metabolic stability was measured by determining the rate of disappearance of compound in the presence of human liver microsomal preparations, as quantified by LC-MS/MS. Solubility was measured by equilibration of the compound in fasted state simulated intestinal fluid (FaSSIF) and quantified by HPLC.
In vitro potency as anti-inflammatory agents was determined for a number of APSAP compounds by incubation with J774 macrophages and subsequent determination of cell viability.
J774 cells were plated at 10^4 cells per well in 100 μL αMEM (α Modified Eagle Medium) in 96-well plates and grown overnight. The next day, test compounds were added to the cultures, and cultures were continued for another 72 hours. At the end of the culture period, cell survival was determined using an Alamar Blue assay as previously described (see, e.g., Nociari et al., 1998).
Alamar Blue is an oxidation-reduction sensitive indicator. The dye itself is in the oxidised state, which is blue and non-fluorescent. The dye can accept electrons from reducing species, such as NADPH and FADH, to form a reduced dye species, which is red and fluorescent. Thus the transformation from oxidised form to reduced form can be measured by fluorimetric or colourimetric means. For fluorescence measurements, 530-560 nm excitation and 590 nm emission wavelengths are typically used. For colourimetric measurements, absorbance at 570 nm (reduced form) and 600 nm (oxidised form) is typically measured. A simple calculation is performed to determine the relative quantities of the two species.
A high ratio of the reducing species, NADPH and FADH, to the corresponding oxidised species, NADP and FAD, is an indicator that cells are proliferating and viable. A low ratio indicates cells that are quiescent or non-viable.
Briefly, Alamar Blue (Biosource International) was added undiluted to each well (1:10 v/v, 10 μL). The plate was incubated at 37° C. for 3-4 hours and the fluorescence was measured at 590 nm, with a 25 nm bandwidth. A high reading indicated cells with normal viability, and a low reading indicated cells that have been damaged and are no longer proliferating normally. The controls gave a high fluorescence reading, indicating a high number of live, healthy cells. A potent test compound gave a low fluorescence reading.
The average results for each test compound (n=5) were expressed as a percent (%) of the average control value.
Addition of Compounds. All of the compounds studied were made up as 100 mM solutions in DMSO. These stock solutions were then diluted 1000-10000× in culture medium (αMEM). From these 100 μM or 10 μM solutions, convenient quantities (3-33 μL) were added directly to the wells so as to give the desired final compound concentration.

[1] = Thermodynamic aqueous solubility in fasted state simulated intestinal fluid (FaSSIF); assay type: physicochemical; conditions: 25° C., 24 hours equilibration, HPLC; for solubility at 24 h: pH 6.5, thermodynamic from solid
Protocol: as §1
Thermodynamic aqueous solubility was measured by equilibration of a number of APSAP compounds, in the solid state, with fasted state simulated intestinal fluid (FaSSIF) and quantified by HPLC. Measurement of solubility in FaSSIF provides a valuable model for the prediction of drug dissolution following oral administration.
Preparation of blank FaSSIF: NaOH pellets (174 mg), NaH2PO4.2H2O (2.235 g), and NaCl (3.093 g) were dissolved in 500 mL of water. The pH was adjusted to 6.5 using 1 M NaOH solution.
Preparation of FaSSIF: Sodium taurocholate (165 mg) was dissolved in 25 mL blank FaSSIF. 0.6 mL of a solution containing 100 mg/mL lecithin in methylene chloride was added. The methylene chloride was eliminated under vacuum at about 40° C. The vacuum was drawn for 15 minutes at 250 mbar, followed by 15 minutes at 100 mbar. […] After cooling to room temperature, the solution was then adjusted to 100 mL with blank FaSSIF.
The suspension was equilibrated at 25° C. for 24 hours, and then the pH was measured. The suspension was then filtered through a glass fibre C filter into a 96-well plate. The filtrate was then diluted by a factor of 100. Quantification was made by HPLC with reference to a standard solution of compound at approximately 0.1 mg/mL in DMSO. Different volumes of the standard, diluted and undiluted sample solutions were injected. The solubility was calculated using the peak areas determined by integration of the peak found at the same retention time as the principal peak in the standard injection. Analysis was performed on an Agilent HP1100 series system equipped with a diode array detector and using ChemStation software vB.02.01-SR1.

[2] = Human liver microsomal stability assay; assay type: in vitro ADME; conditions: pooled human liver microsomes 0.5 mg/mL, test compound 3 μM, 45 minute incubation, NADPH; for half-life at 3 μM: both sexes, pH 7.4
Protocol: as §1
Metabolic stability of APSAP derivatives was measured by determination of the rate of compound disappearance when incubated in the presence of human liver microsomes. Liver microsomes are prepared from the endoplasmic reticulum of hepatocytes and are the primary source of the most important enzymes (cytochrome P450) involved in drug metabolism. Study of drug stability in the presence of liver microsomes is accepted as a valuable model permitting rapid prediction of in vivo drug stability.
Human liver microsomes were obtained from a commercial source. Test compounds (3 μM) were incubated with pooled liver microsomes (male and female). Samples were incubated for a 45 minute period and removed at 5 time points and test compounds were analysed by LC-MS/MS.
The final incubation volume was 25 μL. A control incubation was included for each compound tested, where 0.1 M phosphate buffer pH 7.4 was added instead of NADPH. The control compounds testosterone and 7-hydroxycoumarin were included in each experiment and all incubations were performed singularly for each compound.
Each compound was incubated for 0, 5, 15, 30, and 45 minutes. The control (minus NADPH) was incubated for 45 minutes only. The reactions were stopped by the addition of 50 μL methanol containing internal standard at the appropriate time points. The incubation plates were centrifuged at 2500 rpm for 20 minutes at 4° C. to precipitate the protein.
Following protein precipitation, the sample supernatants were combined in cassettes of up to 4 compounds and analysed using standard LC-MS/MS conditions.
From a plot of the natural logarithm of the peak area ratio (i.e., the ratio of compound peak area:internal standard peak area) against time, the gradient of the line was determined. Subsequently, half-life and intrinsic clearance were calculated using the equations below: Eliminated rate constant(k)=(−gradient). […] Intrinsic Clearance(CLint)([…])=(V×0.693)/t1/2. wherein V=Incubation volume(μL/mg microsomal protein). Pharmacokinetics Studies

[3] = fasted state simulated intestinal fluid (FaSSIF)

| half-life at 3 μM [2] | solubility at 24 h [1, 3] | Structure (SMILES) | IC50 (J774 macrophages; Mus musculus) | other results |
| --- | --- | --- | --- | --- |
|  |  | O=S(=O)(Nc1cccc(CO)c1)c1ccc(-c2ccc(F)cc2F)cc1 [ABD456, 2′,4′-difluoro-biphenyl-4-sulfonic acid (3-hydroxymethyl-phenyl)-amide, reference compound] | 0.25 µM | solubility at 24 h [1]: 50 µg/mL (≈ 133 µM) |
|  |  | Cc1c(CO)cccc1NS(=O)(=O)c1ccc(-c2ccc(F)cc2F)cc1 [ABD527, reference compound] |  | Solubility [1]: 40 µg/mL (≈ 103 µM) |
|  |  | O=S(=O)(Nc1ccc(CO)c(CO)c1)c1ccc(-c2ccc(F)cc2F)cc1 [ABD565, reference compound] |  | Solubility [1]: 30 µg/mL (≈ 74 µM) |
|  |  | O=S(=O)(Nc1cccc(CO)c1)c1ccc(-c2ccc(Cl)cc2F)cc1 [ABD575, reference compound] |  | IC50 (J774 macrophages): 0.4 µM; Solubility [1]: 70 µg/mL (≈ 179 µM) |
|  |  | O=S(=O)(Nc1cc(CO)ccc1O)c1ccc(-c2ccc(F)cc2F)cc1 [ABD585, reference compound] |  | Solubility [1]: 70 µg/mL (≈ 179 µM) |
|  | 130 µg/mL (≈ 308 µM) | O=C(O)c1cccc(NS(=O)(=O)c2ccc(-c3ccc(Cl)cc3Cl)cc2)c1 [ABD612, 3-(2′,4′-Dichlorobiphenyl-4-ylsulfonamido)benzoic acid, reference compound] |  | T1/2 [2]: Stable |
|  |  | O=S(=O)(Nc1cccc(CCO)c1)c1ccc(-c2ccc(Cl)cc2Cl)cc1 [ABD625, reference compound] |  | T1/2 [2]: 13 min |
| 18 min |  | O=S(=O)(Nc1cccc(CCO)c1)c1ccc(-c2ccc(F)cc2F)cc1 [ABD628, 2′,4′-difluoro-biphenyl-4-sulfonic acid [3-(2-hydroxy-ethyl)-phenyl]-amide, reference compound] |  |  |
|  |  | O=S(=O)(Nc1cccc(CCO)c1)c1ccc(-c2ccc(Br)cc2)cc1 [ABD630, reference compound] |  | T1/2 [2]: 43 min; Solubility [1]: 60 µg/mL (≈ 139 µM) |
| 12 min | 140 µg/mL (≈ 321 µM) | CC(C)(O)c1cccc(NS(=O)(=O)c2ccc(-c3ccc(Cl)cc3Cl)cc2)c1 [ABD707, 2′,4′-Dichloro-N-(3-(2-hydroxypropan-2-yl)phenyl)biphenyl-4-sulfonamide] | 0.09 µM |  |
| 6 min | 100 µg/mL (≈ 237 µM) | CC(O)c1cccc(NS(=O)(=O)c2ccc(-c3ccc(Cl)cc3Cl)cc2)c1 (stereo not shown) [ABD708, 2′,4′-Dichloro-N-(3-(1-hydroxyethyl)phenyl)biphenyl-4-sulfonamide] | 0.18 µM |  |
| 18 min | 70 µg/mL (≈ 161 µM) | O=S(=O)(Nc1cccc(C2(O)CC2)c1)c1ccc(-c2ccc(Cl)cc2Cl)cc1 [ABD709, 2′,4′-Dichloro-N-(3-(1-hydroxycyclopropyl)phenyl)biphenyl-4-sulfonamide] | 0.38 µM |  |
| 21 min | 90 µg/mL (≈ 207 µM) | CN(C)Cc1cccc(NS(=O)(=O)c2ccc(-c3ccc(Cl)cc3Cl)cc2)c1 [ABD724, 2′,4′-Dichloro-N-(3-((dimethylamino)methyl)phenyl)biphenyl-4-sulfonamide] | 0.3 µM |  |
| 15 min | 20 µg/mL (≈ 44.5 µM) | CN(C)C(=O)c1cccc(NS(=O)(=O)c2ccc(-c3ccc(Cl)cc3Cl)cc2)c1 [ABD730, 3-(2′,4′-Dichlorobiphenyl-4-ylsulfonamido)-N,N-dimethylbenzamide] |  |  |
| 11 min | 8 µg/mL (≈ 19 µM) | CC(=O)c1cccc(NS(=O)(=O)c2ccc(-c3ccc(Cl)cc3Cl)cc2)c1 [ABD746, N-(3-Acetylphenyl)-2′,4′-dichlorobiphenyl-4-sulfonamide, reference compound] |  |  |
| 46 min | 40 µg/mL (≈ 87.5 µM) | NS(=O)(=O)c1cccc(NS(=O)(=O)c2ccc(-c3ccc(Cl)cc3Cl)cc2)c1 [ABD751, 2′,4′-Dichloro-N-(3-sulfamoylphenyl)biphenyl-4-sulfonamide] | 0.87 µM |  |
| 16 min | 20 µg/mL (≈ 42 µM) | O=S(=O)(Nc1cccc(C(O)C(F)(F)F)c1)c1ccc(-c2ccc(Cl)cc2Cl)cc1 (stereo not shown) [ABD766, 2′,4′-Dichloro-N-(3-(2,2,2-trifluoro-1-hydroxyethyl)phenyl)biphenyl-4-sulfonamide] | 0.71 µM |  |
|  |  | CN(C)CC(O)c1cccc(NS(=O)(=O)c2ccc(-c3ccc(F)cc3F)cc2)c1 (stereo not shown) [ABD784, N-(3-(2-(Dimethylamino)-1-hydroxyethyl)phenyl)-2′,4′-difluorobiphenyl-4-sulfonamide] | 1.43 µM |  |
|  |  | CN[C@@H](CO)c1cccc(NS(=O)(=O)c2ccc(-c3ccc(F)cc3F)cc2)c1 [ABD810, (R)-2′,4′-Difluoro-N-(3-(2-hydroxy-1-(methylamino)ethyl)phenyl)biphenyl-4-sulfonamide] | 1.02 µM |  |
|  |  | CN[C@H](CO)c1cccc(NS(=O)(=O)c2ccc(-c3ccc(F)cc3F)cc2)c1 [ABD811, (S)-2′,4′-Difluoro-N-(3-(2-hydroxy-1-(methylamino)ethyl)phenyl)biphenyl-4-sulfonamide] | 0.35 µM |  |
|  |  | N[C@@H](CO)c1cccc(NS(=O)(=O)c2ccc(-c3ccc(F)cc3F)cc2)c1 [ABD854, (R)—N-(3-(1-Amino-2-hydroxyethyl)phenyl)-2′,4′-difluorobiphenyl-4-sulfonamide] | 1.35 µM |  |
|  |  | CC(N)(CO)c1cccc(NS(=O)(=O)c2ccc(-c3ccc(F)cc3F)cc2)c1 (stereo not shown) [ABD862, N-(3-(2-Amino-1-hydroxypropan-2-yl)phenyl)-2′,4′-difluorobiphenyl-4-sulfonamide] | 2.43 µM |  |

| Structure (SMILES) | half-life at 3 μM [2] | solubility at 24 h [1, 3] | IC50 (J774 macrophages; Mus musculus) | other results |
| --- | --- | --- | --- | --- |
| O=S(=O)(Nc1ccc(CO)cc1)c1ccc(-c2ccc(F)cc2F)cc1 [ABD466, 2′,4′-difluoro-biphenyl-4-sulfonic acid (4-hydroxymethyl-phenyl)-amide, reference compound] | 2 min |  | 3 µM | solubility at 24 h [1]: 40 µg/mL (≈ 107 µM) |
